Type in all cases: cell-based
For assay [1], the system named is Staphylococcus aureus ATCC43300. Nature of the assay: Resistance test of bacteria against compounds (serial passage, 21 days). The conditions noted are these: Staphylococcus aureus, ATCC43300, 504 h, read-out: MIC at the end of the experiment. The procedure:
This example provides a resistance test of bacteria against compounds, and the specific experimental method is as follows. • 1. […] It was ensured that among the 6 final concentrations of the drug diluted into the wells, some were higher than the original MIC of the bacteria and some were lower than the original MIC of the bacteria. • 2. Preparation of bacterial liquid: 10 mL of culture medium was taken and added to a sterilized plate using a pipette, then 100 µL of the above-mentioned passaged bacterial liquid was added, and mixed well for later use. • 3. The above-mentioned diluted bacterial liquid was taken and added to a 96-well plate using a pipette, 180 µL per well, 3 wells per group, 6 groups in total. 20 µL of drug solution was added to each well (note: it is necessary to replace the pipette tip each time the drug is added), so that the final drug concentrations were 2 µg/mL, 1 µg/mL, 0.8 µg/mL, 0.4 µg/mL, 0.2 µg/mL, 0.1 µg/mL, respectively. The well with 200 µL of diluted bacterial liquid was used as the positive control well, and the well with 200 µL of culture medium was used as the negative control well.
The test object was Staphylococcus aureus (S. aureus). The specific results are shown in FIG1.

Assay [2] deals with E. feacium ATCC 700221. Nature of the assay: In vitro antibacterial activity assay (MIC, broth dilution). The settings on record: Table 1; 37°C, 16 hours; read-out: G+ bacteria MIC E. feacium ATCC 700221. An excerpt:
(§1) The method used to indicate the activity of the compounds in this example is to record the minimum inhibitory concentration (MIC) of the compounds against bacteria. The specific experimental method is as follows: • 1. The bacterial liquid cultured from a single colony was taken, and diluted into autoclaved CAMHB broth in a ratio of 1:1000, and mixed well. • 2. The prepared drug solution was filtered through a sterile 0.22µm syringe filter and placed in a sterile EP tube for later use. • 3. A 96-well plate was taken, and 20µL of drug solution (400µg/mL) was added to each well in the first column of the 96-well plate. Then, 180µL of diluted bacterial liquid was added and mixed well (Perform 3 replicate rows for each drug). The same process was performed for the hydrochloride drug. • 4. 100 µL of diluted bacterial liquid was added to each well in the remaining 11 columns of the 96-well plate. Drugs are the same as above. • 5. Serial dilution: 100µL of liquid was taken from the first column to the second column, mixed well, then 100µL of liquid was taken from the second column to the third column, mixed well, and so on, sequentially diluting down to the last column (column 12). After mixing column 12 well, 100µL of liquid thereof was discarded. The drug concentration in each well was decreased by two-fold serially (the concentration in the first well is 40µg/mL). • 6. Blank CAMHB broth without added bacteria liquid was added to 3 blank wells in the 96-well plate, as negative control. • 7. The diluted bacterial liquid was added to 3 blank wells in the 96-well plate, as positive control. • 8. Incubated at 37°C for 16 hours. • 9. Results reading: the minimum inhibitory concentration is the minimum drug concentration at which no bacterial growth is visible to the naked eye and without turbidity.
(In general: In broth dilution the organism is exposed to a series of concentrations in liquid medium.)

Assay [3] has as its system P.aeruginosa ATCC 27853. The assay is described as above. The conditions noted are these: Pseudomonas aeruginosa, ATCC27853; Table 2; 37°C, 16 hours; read-out: G- bacteria MIC P.aeruginosa ATCC 27853.
From the text: as §1

Assay [4] has as its system E. coli ATCC 25922. The description is as above. The conditions noted are these: Escherichia coli, ATCC25922; Table 2; 37°C, 16 hours; read-out: G- bacteria MIC E. coli ATCC 25922.
From the text: as §1

The test system of assay [5] is S. aureus ATCC 43300. Described as above. The settings on record: Staphylococcus aureus, ATCC43300; Table 1; 37°C, 16 hours; read-out: G+ bacteria MIC S. aureus ATCC 43300.
From the text: as §1

Assay [6] concerns A. baumannii ATCC 17978. The description is as above. The conditions noted are these: Acinetobacter baumannii, ATCC17978; Table 2; 37°C, 16 hours; read-out: G- bacteria MIC A. baumannii ATCC 17978.
From the text: as §1

The values that follow come from patent EP4644391A1, “NOVEL PHENYLQUINOLONE COMPOUND HAVING ANTIBACTERIAL AND ANTICANCER FUNCTIONS, AND PREPARATION THEREOF” (Alphamol Science Ltd (Shanghai), priority 2022, dated 2024).

≈ marks a conversion by molar mass, not a printed value.

For `CN[C@H](CC(C)C)C(=O)N[C@H]1C(=O)N[C@@H](CC(N)=O)C(=O)N[C@H]2C(=O)N[C@H]3C(=O)N[C@H](C(=O)N[C@H](C(=O)O)c4cc(O)cc(O)c4-c4cc3ccc4O)[C@H](O)c3ccc(c(Cl)c3)Oc3cc2cc(c3O[C@@H]2O[C@H](CO)[C@@H](O)[C@H](O)[C@H]2O[C@H]2C[C@](C)(N)[C@H](O)[C@H](C)O2)Oc2ccc(cc2Cl)[C@H]1O` [vancomycin], the minimal inhibitory concentration (MIC) (as a rule, the smallest concentration in the dilution series that meets the test's criterion for growth inhibition) in assay [1] worked out at 4 µg/mL (≈ 2.76 µM).
Turning to `NS(=O)(=O)c1ccc(-c2c(F)cc3c(=O)c(C(=O)O)cn(C4CC4)c3c2Cl)cc1[N+](=O)[O-]` [Example 4, 8-chloro-1-cyclopropyl-6-fluoro-7-(3-nitro-4-sulfamoyphenyl)-4-oxo-1,4-dihydroquinolin-3-carboxylic acid], the minimum inhibitory concentration (MIC) in assay [2] is 1 to 8 µg/mL (≈ 2.08 to 16.6 µM); in assay [3], 0.1 to 1 µg/mL (≈ 0.208 to 2.08 µM); in assay [4] it was not above 0.1 µg/mL; in assay [5] it was not above 0.1 µg/mL; in assay [6] it was 0.1 to 1 µg/mL (≈ 0.208 to 2.08 µM).
